The record followed here is US11866518B2, “Bicyclic peptide ligands specific for TSLP” (BicycleTx Limited, priority 2020, dated 2024).

*1 amine or outer side, *2 acyl side, *3 side chain or, on linkers, in order; H or OH if unused. Where a SMILES comes first, the peptide text is derived from it. Bridges are numbered along the chain shown (N, C = ends). TATA = O=C(CC[*:1])N1CN(C(=O)CC[*:2])CN(C(=O)CC[*:3])C1

Test [1] concerns the target T1, TSLP (Homo sapiens, UniProt Q969D9). In words: Human peripheral blood mononuclear cell assay (TSLP-induced CCL17/TARC). Type of test: cell-based. More on the design: host or cells: added to human PBMCs from healthy donors. Conditions: read-out: CCL17 % Inhibition @ 10 μM, […] TSLP. As to the method: Human peripheral blood mononuclear cells (PMBCs) were obtained from heparinized whole blood (healthy donors) by density gradient centrifugation using Lymphoprep (StemCell Technologies, Vancouver, BC) according to the manufacturers instructions. The PBMCs were washed twice with PBS containing 2 mM EDTA and 2% fetal calf serum (FCS) and reconstituted in RPMI containing 10% FCS and 2% PenStrep at a final concentration of 3 million cells/mL. This cell suspension (100 μL) was aliquoted into the wells of a 96-well flat bottom tissue culture plate. 5 μL of bicycle peptide or vehicle (0.1% DMSO in complete medium) was then added and mixed with 5 μL of TSLPvehicle (complete medium). […] The plate was incubated for 30 minutes are rt. 10 μL of this mixture was added to cells and the plate was incubated for 24 hours in a 10% CO2, humidified incubator at 37° C. The plate was centrifuged at 300×g for 5 min and the collected supernatants frozen at −20° C. for subsequent CCL17/TARC analysis.
CCL17/TARC was determined by MSD (MesoScale Discovery, Maryland, USA) according to the manufacturer's instructions.

The target in test [2] is T1, TSLP. The test is described as follows: Human TSLP Surface Plasmon Resonance (SPR) binding assay. The arrangement: The resulting construct spCD33-6×HN-TEV-hTSLP(29-159)-Avi; 6xHN tag with TEV site (N, cleaved yes); made in house; host or cells: Expi293F cells. The conditions noted are these: biotinylated human TSLP immobilized on streptavidin chip; 20° C.; steady-state or kinetic 1:1 fit; read-out: hTSLP SPR Kd.

T1 sequence (Q969D9 29-159): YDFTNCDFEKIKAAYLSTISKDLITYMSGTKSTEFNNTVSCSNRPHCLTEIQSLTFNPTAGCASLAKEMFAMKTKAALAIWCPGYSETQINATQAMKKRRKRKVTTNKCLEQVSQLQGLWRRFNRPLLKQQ

For the molecule `CC(=O)N[C@H]1CSCCC(=O)N2CN3CN(C2)C(=O)CCSC[C@H](NC(=O)[C@H](CC(=O)O)NC(=O)[C@H](CCC(=O)O)NC(=O)[C@H](CC(C)C)NC(=O)[C@H](Cc2c[nH]c4ccccc24)NC(=O)[C@H](CCC(N)=O)NC1=O)C(=O)N[C@@H](Cc1c[nH]c2ccccc12)C(=O)N[C@@H](CCCNC(=N)N)C(=O)NCC(=O)N[C@@H](Cc1ccc(Cl)c(Cl)c1)C(=O)N[C@H](C(N)=O)CSCCC3=O` [Example 11, Ac-(SEQ ID NO: 9)], at TSLP [1], the inhibition at 10 µM amounted to 43%. On TSLP [2], the Kd amounted to 5.8 nM.

As for `CC(=O)N[C@@H](C)C(=O)N[C@H]1CSCCC(=O)N2CN3CN(C2)C(=O)CCSC[C@@H](C(=O)N2CCC[C@H]2C(=O)N[C@@H](CC(C)C)C(=O)N[C@@H](CC(=O)O)C(N)=O)NC(=O)[C@H](Cc2ccccc2)NC(=O)CNC(=O)[C@H](CCCNC(=N)N)NC(=O)[C@H](Cc2c[nH]c4ccccc24)NC(=O)[C@H](CSCCC3=O)NC(=O)[C@H](CC(=O)O)NC(=O)[C@H](CCC(=O)O)NC(=O)[C@H](CC(C)C)NC(=O)[C@H](Cc2c[nH]c3ccccc23)NC(=O)[C@H](CCC(N)=O)NC1=O` [Example 53, Ac-A-(SEQ ID NO: 38)-PLD], the inhibition at 10 µM at TSLP [1] was -2%. In addition, the Kd at TSLP [2] was found to be 43 nM.

Regarding `CSCC[C@H](NC(=O)[C@@H](N)[C@@H](C)O)C(=O)N[C@@H](CCC(=O)O)C(=O)N[C@@H](Cc1ccc(O)cc1)C(=O)N[C@@H](CCCNC(=N)N)C(=O)N[C@@H](CC(=O)O)C(=O)N[C@H]1CSCCC(=O)N2CN3CN(C2)C(=O)CCSC[C@H](NC(=O)[C@H](CC(=O)O)NC(=O)[C@H](CCC(=O)O)NC(=O)[C@H](CC(C)C)NC(=O)[C@H](Cc2c[nH]c4ccccc24)NC(=O)[C@H](CCC(N)=O)NC1=O)C(=O)N[C@@H](Cc1c[nH]c2ccccc12)C(=O)N[C@@H](CCCNC(=N)N)C(=O)NCC(=O)N[C@@H](Cc1ccccc1)C(=O)N[C@H](C(=O)N[C@@H](C)C(N)=O)CSCCC3=O` [Example 56, TMEYRD-(SEQ ID NO: 38)-A], the inhibition at 10 µM on TSLP [1] stood at 40%.

`CC(C)C[C@@H]1NC(=O)[C@H](Cc2c[nH]c3ccccc23)NC(=O)[C@H](CCC(N)=O)NC(=O)[C@@H](NC(=O)[C@H](C)N)CSCCC(=O)N2CN3CN(C2)C(=O)CCSC[C@H](NC(=O)[C@H](CC(=O)O)NC(=O)[C@H](CCC(=O)O)NC1=O)C(=O)N[C@@H](Cc1c[nH]c2ccccc12)C(=O)N[C@@H](CCCNC(=N)N)C(=O)NCC(=O)N[C@@H](Cc1ccccc1)C(=O)N[C@H](C(=O)N[C@@H](CO)C(=O)N[C@@H](CO)C(=O)N[C@@H](CO)C(=O)N[C@@H](CC(=O)O)C(=O)N[C@@H](CCC(N)=O)C(=O)N[C@@H](CO)C(N)=O)CSCCC3=O` [Example 59, A-(SEQ ID NO: 38)-SSSDQS]: the inhibition at 10 µM on TSLP [1] worked out at 2%. Also, at TSLP [2], the Kd turned out to be 52 nM.

For `CC(C)C[C@@H]1NC(=O)[C@H](Cc2c[nH]c3ccccc23)NC(=O)[C@H]([C@@H](C)O)NC(=O)[C@@H](NC(=O)[C@H](C)N)CSCCC(=O)N2CN3CN(C2)C(=O)CCSC[C@H](NC(=O)[C@H](CC(=O)O)NC(=O)[C@H](CCC(=O)O)NC1=O)C(=O)N[C@@H](Cc1c[nH]c2ccccc12)C(=O)N[C@@H](CCCNC(=N)N)C(=O)NCC(=O)N[C@@H](Cc1ccccc1)C(=O)N[C@H](C(=O)N[C@@H](C)C(=O)N[C@@H](CC(=O)O)C(=O)N[C@@H](CO)C(N)=O)CSCCC3=O` [Example 63, A-(SEQ ID NO: 49)-ADS] (H-ACTWLEDCWRGFCADS-NH2; linker 2-8-13 via TATA; N-terminus assumed), the inhibition at 10 µM at TSLP [1] was 24%. Also, the Kd at TSLP [2] was found to be 65 nM.

For the molecule `CC(C)C[C@@H]1NC(=O)[C@H](Cc2c[nH]c3ccccc23)NC(=O)[C@H](CCC(N)=O)NC(=O)[C@@H](NC(=O)[C@H](C)N)CSCCC(=O)N2CN3CN(C2)C(=O)CCSC[C@H](NC(=O)[C@H](CC(=O)O)NC(=O)[C@H](CCC(=O)O)NC1=O)C(=O)N[C@@H](Cc1c[nH]c2ccccc12)C(=O)N[C@@H](CCCNC(=N)N)C(=O)NCC(=O)N[C@@H](Cc1ccccc1)C(=O)N[C@H](C(=O)N[C@@H](C)C(N)=O)CSCCC3=O` [Example 68, A-(SEQ ID NO: 38)-A], the inhibition at 10 µM on TSLP [1] was 33%.

As for `CC(C)C[C@@H]1NC(=O)[C@H](Cc2c[nH]c3ccccc23)NC(=O)[C@H](C(C)C)NC(=O)[C@@H](NC(=O)[C@@H]2CCCN2C(=O)[C@@H]2CCCN2C(=O)[C@@H](N)CO)CSCCC(=O)N2CN3CN(C2)C(=O)CCSC[C@H](NC(=O)[C@H](CC(=O)O)NC(=O)[C@H](CC(=O)O)NC1=O)C(=O)N[C@@H](Cc1c[nH]c2ccccc12)C(=O)N[C@@H](CCCNC(=N)N)C(=O)NCC(=O)N[C@@H](Cc1ccccc1)C(=O)N[C@H](C(=O)N[C@@H](C)C(N)=O)CSCCC3=O` [Example 73, SPP-(SEQ ID NO: 54)-A] (H-SPPCVWLDDCWRGFCA-NH2; linker 4-10-15 via TATA; N-terminus and C-terminus assumed), on TSLP [1], the inhibition at 10 µM is -11%. Further, on TSLP [2], the Kd is 85 nM.

With `CC(=O)N[C@H]1CSCCC(=O)N2CN3CN(C2)C(=O)CCSC[C@H](NC(=O)[C@H](CC(=O)O)NC(=O)[C@H](CCC(=O)O)NC(=O)[C@H](CC(C)C)NC(=O)[C@H](Cc2c[nH]c4ccccc24)NC(=O)[C@H](CCC(N)=O)NC1=O)C(=O)N[C@@H](Cc1c[nH]c2ccccc12)C(=O)N[C@@H](CCCNC(=N)N)C(=O)NCC(=O)N[C@@H](Cc1cccc(C)c1)C(=O)N[C@H](C(N)=O)CSCCC3=O` [Example 74, Ac-(SEQ ID NO: 55)], the inhibition at 10 µM on TSLP [1] is 43%. The Kd at TSLP [2] was 91 nM.

Regarding `CC(C)C[C@H](NC(=O)[C@H](Cc1c[nH]cn1)NC(=O)[C@@H]1CSCCC(=O)N2CN3CN(C2)C(=O)CCSC[C@H](NC(=O)[C@H](CC(=O)O)NC(=O)[C@H](CCC(=O)O)NC(=O)[C@H](CC(C)C)NC(=O)[C@H](Cc2c[nH]c4ccccc24)NC(=O)[C@H](Cc2c[nH]cn2)NC(=O)[C@@H](NC(=O)[C@H](C)N)CSCCC3=O)C(=O)N[C@@H](Cc2c[nH]c3ccccc23)C(=O)N[C@@H](CCCNC(=N)N)C(=O)NCC(=O)N[C@@H](Cc2ccccc2)C(=O)N1)C(=O)N[C@@H](CCC(=O)O)C(N)=O` [Example 75, A-(SEQ ID NO: 56)-HLE] (H-ACHWLEDCWRGFCHLE-NH2; linker 2-8-13 via TATA), the inhibition at 10 µM at TSLP [1] is -2%. In addition, the Kd on TSLP [2] stood at 92 nM.

In the case of `CC(C)C[C@@H]1NC(=O)[C@H](Cc2c[nH]c3ccccc23)NC(=O)[C@H]([C@@H](C)O)NC(=O)[C@@H](NC(=O)[C@H](C)N)CSCCC(=O)N2CN3CN(C2)C(=O)CCSC[C@H](NC(=O)[C@H](CC(=O)O)NC(=O)[C@H](CC(=O)O)NC1=O)C(=O)N[C@@H](Cc1c[nH]c2ccccc12)C(=O)N[C@@H](CCCNC(=N)N)C(=O)NCC(=O)N[C@@H](Cc1ccccc1)C(=O)N[C@H](C(=O)N[C@@H](C)C(N)=O)CSCCC3=O` [Example 76, A-(SEQ ID NO: 57)-A] (H-ACTWLDDCWRGFCA-NH2; linker 2-8-13 via TATA; N-terminus and C-terminus assumed), the inhibition at 10 µM on TSLP [1] is 0%.

On to `CC(=O)N[C@H]1CSCCC(=O)N2CN3CN(C2)C(=O)CCSC[C@H](NC(=O)[C@H](CC(=O)O)NC(=O)[C@H](CCC(=O)O)NC(=O)[C@H](CC(C)C)NC(=O)[C@H](Cc2c[nH]c4ccccc24)NC(=O)[C@H](CCC(N)=O)NC1=O)C(=O)N[C@@H](Cc1c[nH]c2ccccc12)C(=O)N[C@@H](CCCNC(=N)N)C(=O)NCC(=O)N[C@@H](Cc1ccccc1)C(=O)N[C@H](C(N)=O)CSCCC3=O` [Example 79, Ac-(SEQ ID NO: 38)], for which the inhibition at 10 µM on TSLP [1] was -18%.

As to `CC(C)C[C@@H]1NC(=O)[C@H](Cc2c[nH]c3ccccc23)NC(=O)[C@H](Cc2c[nH]c3ccccc23)NC(=O)[C@H](CO)NC(=O)[C@H](CO)NC(=O)[C@@H]2CSCCC(=O)N3CN(CN(C3)C(=O)CCSC[C@@H](C(=O)N[C@@H](C)C(N)=O)NC1=O)C(=O)CCSC[C@H](NC(=O)[C@H](C)N)C(=O)N[C@@H](CCCNC(=N)N)C(=O)N[C@@H](CC(=O)O)C(=O)N[C@@H](CC(C)C)C(=O)N[C@@H](CC(=O)O)C(=O)N1CCC[C@H]1C(=O)N[C@@H](Cc1c[nH]c3ccccc13)C(=O)N[C@@H]([C@@H](C)O)C(=O)N2` [Example 164, A-(SEQ ID NO: 122)-A], the inhibition at 10 µM at TSLP [1] is 0%. Further, the Kd on TSLP [2] is 98 nM.

For `CC(C)C[C@@H]1NC(=O)[C@H](Cc2c[nH]c3ccccc23)NC(=O)[C@H](Cc2c[nH]c3ccccc23)NC(=O)[C@H](CC(N)=O)NC(=O)[C@@H]2CCCN2C(=O)[C@@H]2CSCCC(=O)N3CN(CN(C3)C(=O)CCSC[C@H](NC(=O)[C@@H]3CCCN3C(=O)[C@H](Cc3c[nH]cn3)NC(=O)[C@H](C)N)C(=O)N[C@@H](C)C(=O)N[C@@H](CC(=O)O)C(=O)N[C@@H](CC(C)C)C(=O)N[C@@H](CC(=O)O)C(=O)N3CCC[C@H]3C(=O)N[C@@H](Cc3c[nH]c4ccccc34)C(=O)N[C@@H]([C@@H](C)O)C(=O)N2)C(=O)CCSC[C@@H](C(=O)N[C@@H](C)C(N)=O)NC1=O` [Example 165, AHP-(SEQ ID NO: 123)-A] (H-AHPCADLDPWTCPNWWLCA-NH2; linker 4-12-18 via TATA; N-terminus and C-terminus assumed), the inhibition at 10 µM at TSLP [1] stood at 33%. For the same molecule, the Kd at TSLP [2] is 30 nM.
